Test results reported in patent US4401604A, “Process for preparing thiosulfenamide derivatives of N-phosphonomethylglycine triesters” (Monsanto Company, priority 1981, dated 1983).

Assays:
Assay type in all cases: in vivo
[1] = system: Barnyardgrass; test: Pre-emergent herbicidal activity; conditions: Table III; 11.2 kg/h; 2 WAT
Source text: (§1) A good grade of top soil is placed in aluminum pans and compacted to a depth of 0.95 to 1.27 cm. from the top of each pan. A predetermined number of seeds or vegetative propagules of each of several plant species are placed on top of the soil in each pan and then pressed down. Herbicidal compositions prepared as in the previous example are applied by admixture with or incorporation in the top layer of soil.
(§2) In this method, the soil required to cover the seeds and propagules is weighed and admixed with a herbicidal composition containing a known amount of the active ingredient (compound of this invention). The pans are then filled with the admixture and leveled. Watering is carried out by permitting the soil in the pans to absorb moisture through apertures in the pan bottoms. The seed and propagule containing pans are placed on a wet sand bench and maintained for approximately two weeks under ordinary conditions of sunlight and watering. At the end of this period, the number of emerged plants of each species is noted and compared to an untreated control.
(§3) The pre-emergent herbicidal activity index used below is based upon average percent control of each species as follows:
(§4) Plant species in the table are identified by the same code letters used in the previous example.

[2] = system: Downy Brome; test: Pre-emergent herbicidal activity; conditions: Table III; 11.2 kg/h; 2 WAT
Source text: as §1, §2, §3, §4

[3] = system: Cocklebur; test: Pre-emergent herbicidal activity; conditions: Table III; 11.2 kg/h; 2 WAT
Source text: as §1, §2, §3, §4

[4] = system: Velvetleaf; test: Pre-emergent herbicidal activity; conditions: Table III; 11.2 kg/h; 2 WAT
Source text: as §1, §2, §3, §4

[5] = system: Yellow Nutsedge; test: Pre-emergent herbicidal activity; conditions: Table III; 11.2 kg/h; 2 WAT
Source text: as §1, §2, §3, §4

[6] = system: Quackgrass; test: Pre-emergent herbicidal activity; conditions: Table III; 11.2 kg/h; 2 WAT
Source text: as §1, §2, §3, §4

[7] = system: Canada Thistle; test: Pre-emergent herbicidal activity; conditions: Table III; 11.2 kg/h; 2 WAT
Source text: as §1, §2, §3, §4

[8] = system: Morningglory; test: Pre-emergent herbicidal activity; conditions: Table III; 11.2 kg/h; 2 WAT
Source text: as §1, §2, §3, §4

[9] = system: Johnsongrass; test: Pre-emergent herbicidal activity; conditions: Table III; 11.2 kg/h; 2 WAT
Source text: as §1, §2, §3, §4

[10] = system: Lambsquarters; test: Pre-emergent herbicidal activity; conditions: Table III; 11.2 kg/h; 2 WAT
Source text: as §1, §2, §3, §4

[11] = system: Smartweed; test: Pre-emergent herbicidal activity; conditions: Table III; 11.2 kg/h; 2 WAT
Source text: as §1, §2, §3, §4

[12] = system: Barnyardgrass; test: Post-emergence herbicidal activity, greenhouse; conditions: Table I, 4 WAT
Source text: (§5) A good grade of top soil is placed in aluminum pans having holes in the bottom and compacted to a depth of 0.95 to 1.27 cm. from the top of the pan. A predetermined number of seeds of each of several dicotyledonous and monocotyledonous annual plant species and/or vegetative propagules for the perennial plant species are placed on the soil and pressed into the soil surface. The seeds and/or vegetative propagules are covered with soil and leveled. The pans are then placed on a sand bench in the greenhouse and watered from below as needed. After the plants reach the desired age (two to three weeks), each pan except for the control pans is removed individually to a spraying chamber and sprayed by means of an atomizer operating at a positive air pressure of approximately 1.46 kg/cm^2 absolute. The atomizer contains 6 ml. of a solution or suspension of the chemical. In that 6 ml., is an amount of a cyclohexanone emulsifying agent mixture to give a spray solution or suspension which contains about 0.4% by weight of the emulsifier. The spray solution or suspension contains a sufficient amount of the candidate chemical in order to give application rates corresponding to those set forth in the tables. The spray solution is prepared by taking an aliquot of a 1.0% by weight stock solution or suspension of the candidate chemical in an organic solvent such as acetone or tetrahydrofuran or in water. The emulsifying agent employed is a mixture comprising 35 weight percent butylamine dodecylbenzene sulfonate and 65 weight percent of a tall oil ethylene oxide condensate having about 11 moles of ethylene oxide per mole of tall oil. The pans are returned to the greenhouse and watered as before and the injury to the plants as compared to the control is observed at approximately two and four weeks as indicated in the tables under WAT and the results recorded. In some instances, the two-week observations are omitted.
(§6) The post-emergence herbicidal activity index used in Table I is as follows:
(§7) The plant species utilized in these tests are identified by letter in accordance with the following legend: […]

[13] = system: Downy Brome; test: Post-emergence herbicidal activity, greenhouse; conditions: Table I, 4 WAT
Source text: as §5, §6, §7

[14] = system: Cocklebur; test: Post-emergence herbicidal activity, greenhouse; conditions: Table I, 4 WAT
Source text: as §5, §6, §7

[15] = system: Velvetleaf; test: Post-emergence herbicidal activity, greenhouse; conditions: Table I, 4 WAT
Source text: as §5, §6, §7

[16] = system: Yellow Nutsedge; test: Post-emergence herbicidal activity, greenhouse; conditions: Table I, 4 WAT
Source text: as §5, §6, §7

[17] = system: Quackgrass; test: Post-emergence herbicidal activity, greenhouse; conditions: Table I, 4 WAT
Source text: as §5, §6, §7

[18] = system: Canada Thistle; test: Post-emergence herbicidal activity, greenhouse; conditions: Table I, 4 WAT
Source text: as §5, §6, §7

[19] = system: Morningglory; test: Post-emergence herbicidal activity, greenhouse; conditions: Table I, 4 WAT
Source text: as §5, §6, §7

[20] = system: Johnsongrass; test: Post-emergence herbicidal activity, greenhouse; conditions: Table I, 4 WAT
Source text: as §5, §6, §7

[21] = system: Lambsquarters; test: Post-emergence herbicidal activity, greenhouse; conditions: Table I, 4 WAT
Source text: as §5, §6, §7

[22] = system: Smartweed; test: Post-emergence herbicidal activity, greenhouse; conditions: Table I, 4 WAT
Source text: as §5, §6, §7

O=C(CN(CP(=O)(Oc1ccccc1)Oc1ccccc1)SSC1CCCCC1)OCc1ccccc1 [III, Glycine, N-(cyclohexyldithio)-N-[(diphenoxyphosphinyl)methyl]-, phenylmethyl ester]
0 (0- 24% control): post-emergence herbicidal activity index ([15]; 5.6 kg/h) | post-emergence herbicidal activity index ([16]; 5.6 kg/h) | post-emergence herbicidal activity index ([16]; 11.2 kg/h) | post-emergence herbicidal activity index ([18]; 11.2 kg/h)
2 (50-74% control): post-emergence herbicidal activity index ([12]; 5.6 kg/h) | post-emergence herbicidal activity index ([12]; 11.2 kg/h) | post-emergence herbicidal activity index ([14]; 11.2 kg/h) | post-emergence herbicidal activity index ([17]; 11.2 kg/h) | post-emergence herbicidal activity index ([19]; 11.2 kg/h) | post-emergence herbicidal activity index ([21]; 5.6 kg/h) | post-emergence herbicidal activity index ([21]; 11.2 kg/h) | post-emergence herbicidal activity index ([22]; 5.6 kg/h)
0 (0-24% control): pre-emergent herbicidal activity index [1] | pre-emergent herbicidal activity index [2] | pre-emergent herbicidal activity index [3] | pre-emergent herbicidal activity index [4] | pre-emergent herbicidal activity index [5] | pre-emergent herbicidal activity index [6] | pre-emergent herbicidal activity index [8] | pre-emergent herbicidal activity index [9] | pre-emergent herbicidal activity index [10] | pre-emergent herbicidal activity index [11]
1 (25-49% control): pre-emergent herbicidal activity index [7] | post-emergence herbicidal activity index ([13]; 5.6 kg/h) | post-emergence herbicidal activity index ([13]; 11.2 kg/h) | post-emergence herbicidal activity index ([14]; 5.6 kg/h) | post-emergence herbicidal activity index ([15]; 11.2 kg/h) | post-emergence herbicidal activity index ([17]; 5.6 kg/h) | post-emergence herbicidal activity index ([18]; 5.6 kg/h) | post-emergence herbicidal activity index ([19]; 5.6 kg/h) | post-emergence herbicidal activity index ([20]; 5.6 kg/h) | post-emergence herbicidal activity index ([20]; 11.2 kg/h) | post-emergence herbicidal activity index ([22]; 11.2 kg/h)
